Results reported in publication PMC10904284 (iScience, 2024).

Target: CLso STP (Candidatus Liberibacter solanacearum, UniProt A0A094YYW1)
Type: binding

Sequence of CLso STP (A0A094YYW1 1-207): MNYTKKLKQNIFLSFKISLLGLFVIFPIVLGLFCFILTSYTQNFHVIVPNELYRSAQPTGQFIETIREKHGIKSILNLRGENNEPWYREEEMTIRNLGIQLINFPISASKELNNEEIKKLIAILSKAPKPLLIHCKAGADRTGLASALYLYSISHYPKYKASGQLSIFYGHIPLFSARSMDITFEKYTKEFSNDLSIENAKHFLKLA

Glucose 6-phosphate [G6P] was tested, and the Ka was 17.58 M⁻¹ s⁻¹.
